This note sets out measurements from ChEMBL document CHEMBL1667770, “Stereoselective first total synthesis, confirmation of the absolute configuration and bioevaluation of botryolide-E” (2011).

Common to all, as to assay type: functional
The subject of one test is Escherichia coli. The test can be described thus: Antimicrobial activity against Escherichia coli MTCC 443 after 24 hrs by broth dilution method. The note with it: MTCC 443, 24 h. In general terms: Broth dilution looks for growth in wells or tubes with falling amounts of substance.
The subject of test [1] is Saccharomyces cerevisiae. The test can be described thus: Antimicrobial activity against Saccharomyces cerevisiae MTCC 171 at 100 ug/ml after 24 to 96 hrs by agar cup method. Particulars: read-out: IZ.
The next test deals with Klebsiella pneumoniae. Nature of the test: Antimicrobial activity against Klebsiella pneumoniae MTCC 39 after 24 hrs by broth dilution method. Particulars: MTCC 39, 24 h.
The subject of test [2] is Aspergillus niger. The test can be described thus: Antimicrobial activity against Aspergillus niger MTCC 1344 at 100 ug/ml after 24 to 96 hrs by agar cup method. Particulars: read-out: IZ.
For test [3], the system named is Staphylococcus epidermidis. The test can be described thus: Antimicrobial activity against Staphylococcus epidermidis MTCC 437 after 24 hrs by broth dilution method. Particulars: MTCC 437, 24 h.
Test [4] deals with Candida albicans. Nature of the test: Antimicrobial activity against Candida albicans MTCC 227 at 100 ug/ml after 24 to 96 hrs by agar cup method. Particulars: read-out: IZ.
A further test concerns Bacillus subtilis. The test can be described thus: Antimicrobial activity against Bacillus subtilis MTCC 441 after 24 hrs by broth dilution method. The note with it: MTCC 441, 24 h.
In a further test the test system is Staphylococcus aureus. The test can be described thus: Antimicrobial activity against Staphylococcus aureus MTCC 96 after 24 hrs by broth dilution method. Particulars: MTCC 96, 24 h.
Test [5] has as its system Rhizopus arrhizus. The test can be described thus: Antimicrobial activity against Rhizopus oryzae MTCC 262 at 100 ug/ml after 24 to 96 hrs by agar cup method. Particulars: read-out: IZ.
The next test has as its system Pseudomonas aeruginosa. The test can be described thus: Antimicrobial activity against Pseudomonas aeruginosa MTCC 741 after 24 hrs by broth dilution method. Particulars: MTCC 741, 24 h.
Test [6] concerns Saccharomyces cerevisiae. The test can be described thus: Antimicrobial activity against Saccharomyces cerevisiae MTCC 171 at 30 ug/ml after 24 to 96 hrs by agar cup method. The note with it: read-out: IZ.
For test [7], the system named is Rhizopus arrhizus. The test can be described thus: Antimicrobial activity against Rhizopus oryzae MTCC 262 at 30 ug/ml after 24 to 96 hrs by agar cup method. Particulars: read-out: IZ.
Test [8] concerns Candida albicans. Nature of the test: Antimicrobial activity against Candida albicans MTCC 227 at 30 ug/ml after 24 to 96 hrs by agar cup method. Particulars: read-out: IZ.
Test [9] relates to Aspergillus niger. The test can be described thus: Antimicrobial activity against Aspergillus niger MTCC 1344 at 30 ug/ml after 24 to 96 hrs by agar cup method. The note with it: read-out: IZ.

In brackets after ≈: the same amount, converted by molar mass.

On to `CC(=O)O[C@H](C)C[C@H](O)[C@@H]1C=CC(=O)O1` [BOTRYOLIDE-E], for which the MIC (commonly the lowest concentration found to suppress growth) was 12.5 µg/mL (≈ 58.4 µM) against Escherichia coli; 50 µg/mL (≈ 233 µM) in the test on Klebsiella pneumoniae; 50 µg/mL (≈ 233 µM) in test [3]; 25 µg/mL (≈ 117 µM) with Bacillus subtilis; 6.25 µg/mL (≈ 29.2 µM) against Staphylococcus aureus; 50 µg/mL (≈ 233 µM) in the test on Pseudomonas aeruginosa. Also, the zone of inhibition at 100 µg/mL is 8 mm in the test on Saccharomyces cerevisiae [1], 10 mm in the test with Aspergillus niger [2], 12 mm in the test with Candida albicans [4] and 14 mm in the test with Rhizopus arrhizus [5].

As for `Clc1ccccc1C(c1ccccc1)(c1ccccc1)n1ccnc1` [CLOTRIMAZOLE], the zone of inhibition at 30 µg/mL stood at 23 mm in the test with Saccharomyces cerevisiae [6], 21 mm in the test with Rhizopus arrhizus [7], 22 mm with Candida albicans [8] and 18 mm in the test with Aspergillus niger [9].

On to `O=C1CN(/N=C/c2ccc([N+](=O)[O-])o2)C(=O)N1` [NITROFURANTOIN], for which the MIC against Escherichia coli is 25 µg/mL (≈ 105 µM); against Klebsiella pneumoniae, 50 µg/mL (≈ 210 µM); in test [3], 50 µg/mL (≈ 210 µM); against Bacillus subtilis it was 100 µg/mL (≈ 420 µM); in the test on Staphylococcus aureus it was 50 µg/mL (≈ 210 µM); against Pseudomonas aeruginosa, 100 µg/mL (≈ 420 µM).

As for `CC1(C)S[C@@H]2[C@H](NC(=O)Cc3ccccc3)C(=O)N2[C@H]1C(=O)O` [PENICILLIN G], the MIC (in test [3]; in the test with Bacillus subtilis; against Staphylococcus aureus) was 1.56 µg/mL (≈ 4.67 µM) in each case.

Turning to `CN[C@@H]1[C@H](O[C@H]2[C@H](O[C@H]3[C@H](O)[C@@H](O)[C@H](N=C(N)N)[C@@H](O)[C@@H]3N=C(N)N)O[C@@H](C)[C@]2(O)C=O)O[C@@H](CO)[C@H](O)[C@H]1O` [STREPTOMYCIN], the MIC in the test with Escherichia coli, in the test with Klebsiella pneumoniae and against Pseudomonas aeruginosa was 1.56 µg/mL (≈ 2.69 µM) each time.
